Assay results published in publication PMC7070036, “An amber obligate active site-directed ligand evolution technique for phage display” (Nature Communications, 2020).
Where “and” joins values, the source holds several entries; their conditions need not be identical. Identical values can stand only once.

Tests used:
[1] = target: T1, SIRT2 (Homo sapiens, UniProt Q8IXJ6); experiment: SIRT2 inhibition assay for thiomyristoyl peptides; type: biochemical
T1 sequence (Q8IXJ6 1-389): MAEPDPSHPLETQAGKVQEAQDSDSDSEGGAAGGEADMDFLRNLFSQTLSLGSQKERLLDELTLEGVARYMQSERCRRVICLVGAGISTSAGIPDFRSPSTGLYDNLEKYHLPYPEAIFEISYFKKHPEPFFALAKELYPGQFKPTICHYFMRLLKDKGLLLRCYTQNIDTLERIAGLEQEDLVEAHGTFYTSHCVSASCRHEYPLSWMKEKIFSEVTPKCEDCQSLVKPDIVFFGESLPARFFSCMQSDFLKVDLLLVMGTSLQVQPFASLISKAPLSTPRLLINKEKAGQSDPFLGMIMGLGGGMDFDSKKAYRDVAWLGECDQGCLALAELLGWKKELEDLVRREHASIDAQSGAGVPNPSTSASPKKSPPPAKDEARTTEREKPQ
Experimental: Assays were performed in 40-µL volumes at 37 °C in black, 384-well plates. […] Following incubation, the reaction started with the addition of the fluorogenic substrate (5 µM), and product formation was monitored by measuring the fluorescence intensity every 20 s for 5 min (SIRT2) in a BioTek Synergy H1 microplate reader at λex = 320 nm and λem = 408 nm (gain = 130 and read height = 7 mm). Initial rates were determined using the plot of fluorescence vs. time for linear portions of each curve. IC50 values were then determined using GraphPad Prism to fit a nonlinear regression to the normalized rates vs. inhibitor concentration.

[2] = tested on: amber-obligate phagemid library; experiment: Phage yield on expression of the amber-obligate phagemid library with ncAAs (cfu assay); set-up: species or system E. coli Top10; conditions: BuKRS

SMILES	activity at 0.000488281 µM ([1]; inhibitor 0.488281 nM)	%Activity, SIRT2 ([1]; inhibitor 0.488281 nM, 0.000488281 µM)	activity at 0.000976562 µM ([1]; inhibitor 0.976562 nM)	%Activity, SIRT2 ([1]; inhibitor 0.976562 nM, 0.000976562 µM)	activity at 0.00195312 µM ([1]; inhibitor 1.95312 nM)	%Activity, SIRT2 ([1]; inhibitor 1.95312 nM, 0.00195312 µM)	%Activity, SIRT2 ([1]; inhibitor 3.90625 nM, 0.00390625 µM)	%Activity, SIRT2 ([1]; inhibitor 7.8125 nM, 0.0078125 µM)	activity at 0.015625 µM ([1]; inhibitor 15.625 nM)	%Activity, SIRT2 ([1]; inhibitor 15.625 nM, 0.015625 µM)	activity at 0.0625 µM ([1]; inhibitor 62.5 nM)	%Activity, SIRT2 ([1]; inhibitor 62.5 nM, 0.0625 µM)	activity at 0.125 µM ([1]; inhibitor 125 nM)	%Activity, SIRT2 ([1]; inhibitor 125 nM, 0.125 µM)	activity at 0.25 µM ([1]; inhibitor 250 nM)	%Activity, SIRT2 ([1]; inhibitor 250 nM, 0.25 µM)	%Activity, SIRT2 ([1]; inhibitor 500 nM, 0.5 µM)	activity at 1 µM ([1]; inhibitor 1000 nM)	%Activity, SIRT2 ([1]; inhibitor 1000 nM, 1 µM)	fold increase in particle yield vs no ncAA [2]
CCCCCCCCCCCCCC(=S)NCCCC[C@H](NC(=O)OCc1ccccc1)C(=O)Nc1ccccc1 [TM, reference compound]	101%	98.9615%	72.4%	83.3212% and 86.8904% and 88.3827%	90.7%	86.75%	101.659% and 86.3725% and 107.923%	82.8428% and 60.4593% and 105.944% and 110.889%	83.3%	84.6885%	60.2%	43.9326%	22.5%	19.1421%	12.4%	20.6592%	1.575% and -2.11% and 0.5358%	5.56%	5.083%	
CCCC(=O)NCCCC[C@H](N)C(=O)O [compound 5, N ^Ɛ-butyryl-L-lysine]																				~100 fold
